From ChEMBL document CHEMBL1125278, “Novel cerebroprotective agents with central nervous system stimulating activity. 2. Synthesis and pharmacology of the 1-(acylamino)-7-hydroxyindan derivatives” (1991)

Assays:
Type in all cases: functional
Mus musculus [1] = experiment: Spontaneous movement (SMT) in seconds, was measured after oral administration of 30 mg/kg in mice to test for promoting effects on recovery from coma.
Mus musculus [2] = experiment: Time of recovery of righting reflux (RRT) in seconds was measured after oral administration of 30 mg/kg in mice for the promotional effect on recovery from coma.
Mus musculus [3] = experiment: Antihypoxic effect tested by the ratio of survival time (SVT) of test mice to that of control group, dosed orally 30 mg/kg; conditions: route oral
Mus musculus [4] = experiment: Antihypoxic effect tested by the ratio of survival time (SVT) of test mice to that of control group, dosed intraperitoneally at 30 mg/kg; conditions: route intraperitoneal

Row | Structure (SMILES) | SMT (Mus musculus [1]) | RRT (Mus musculus [2]) | SVT (Mus musculus [3]) | SVT (Mus musculus [4])
1 | Cc1cc(C)c2c(c1O)C(NC(=O)CN1CCN(c3cc(Cl)cc(Cl)c3)CC1)C(C)(C)C2 (stereo not drawn) | 71.1 s | 76.1 s | 106.4% | –
2 | Cc1cc(C)c2c(c1O)C(N)C(c1ccccc1)C2 (stereo not drawn) | 28.9 s | 34.3 s | 114.1% | 185.7%
3 | Cc1cc(C)c2c(c1O)C(NC(=O)CN1CCN(c3ccc(F)cc3)CC1)C(C)(C)C2 (stereo not drawn) | 121.4 s | 110.5 s | 96.2% | –
4 | Cc1cc(C)c2c(c1O)C(NC(=O)CN1CCSCC1)C(C)(C)C2 (stereo not drawn) | 119.9 s | 110.8 s | – | 100.8%
5 | Cc1cccc(N2CCN(CC(=O)NC3CCc4c(C)cc(C)c(O)c43)CC2)c1C (stereo not drawn) | – | – | – | 134.3%
6 | Cc1cc(C)c2c(c1O)C(NC(=O)CN1CCN(c3cccc(F)c3)CC1)C(C)(C)C2 (stereo not drawn) | 72.3 s | 82.8 s | 122.7% | –
7 | Cc1cc(C)c2c(c1O)C(NC(=O)CN1CCN(c3cc(Cl)ccc3Cl)CC1)C(C)(C)C2 (stereo not drawn) | 69.4 s | 73.6 s | 100% | –
8 | COc1ccccc1N1CCN(CC(=O)NC2c3c(O)c(C)cc(C)c3CC2(C)C)CC1 (stereo not drawn) | 117.3 s | 97.2 s | 94.4% | –
9 | Cc1cc(C)c2c(c1O)C(NC(=O)CCN1CCN(c3cccc(Cl)c3)CC1)C(C)(C)C2 (stereo not drawn) | 74 s | 95.4 s | – | 79.5%
10 | COc1cccc(N2CCN(CC(=O)NC3CCc4c(C)cc(C)c(O)c43)CC2)c1 (stereo not drawn) | 54.7 s | 64.2 s | 77.2% | –
11 | Cc1ccccc1C1Cc2c(C)cc(C)c(O)c2C1NC(=O)CN1CCN(c2cccc(Cl)c2)CC1 (stereo not drawn) | 66 s | 75.1 s | 123.7% | –
12 | Cc1cc(C)c2c(c1O)C(NC(=O)CN1CCN(c3ccccc3F)CC1)C(C)(C)C2 (stereo not drawn) | 123.8 s | 89 s | 99.9% | –
13 | Cc1cc(C)c2c(c1O)C(NC(=O)CN1CCCC1)C(C)(C)C2 (stereo not drawn) | 66.4 s | 85.8 s | – | 134.2%
14 | COc1cccc(N2CCN(C(=O)CNC3c4c(O)c(C)cc(C)c4CC3(C)C)CC2)c1 (stereo not drawn) | 111 s | 84 s | – | 97.7%
15 | Cc1cc(C)c2c(c1O)C(NC(=O)CN1CCOCC1)C(C)(C)C2 (stereo not drawn) | 92.2 s | 106.9 s | – | 104.3%
16 | Cc1cc(C)c2c(c1O)C(NC(=O)CN1CCN(c3ccccc3Cl)CC1)C(C)(C)C2 (stereo not drawn) | 77.2 s | 86.5 s | 117.3% | –
17 | Cc1cc(C)c2c(c1O)C(NC(=O)CN1CCN(c3ccc(Cl)c(Cl)c3)CC1)C(C)(C)C2 (stereo not drawn) | 108.2 s | 93.2 s | 100.1% | –
18 | Cc1cc(C)c(N2CCN(CC(=O)NC3c4c(O)c(C)cc(C)c4CC3(C)C)CC2)c(C)c1 (stereo not drawn) | 84 s | 87.6 s | 100.3% | –
19 | CCC(C)c1cc(C)c2c(c1O)C(NC(=O)CN1CCN(c3ccccc3)CC1)CC2 (stereo not drawn) | 78.2 s | 80.3 s | 85.9% | 89.3%
20 | CCOc1ccccc1N1CCN(CC(=O)NC2c3c(O)c(C)cc(C)c3CC2(C)C)CC1 (stereo not drawn) | 71.8 s | 90.3 s | 130.4% | –
21 | Cc1cc(C)c2c(c1O)C(NCCN1CCN(c3cccc(Cl)c3)CC1)C(C)(C)C2 (stereo not drawn) | 59.9 s | 64.8 s | – | 141.3%
22 | Cc1ccc(N2CCN(CC(=O)NC3c4c(O)c(C)cc(C)c4CC3(C)C)CC2)cc1Cl (stereo not drawn) | 117.7 s | 103.9 s | 90.5% | –
23 | COc1cccc(N2CCN(CC(=O)NC3c4c(O)c(C)cc(C)c4CC3c3ccccc3)CC2)c1 (stereo not drawn) | 80.6 s | 82 s | 78.3% | –
24 | CCC(C)c1cc(C)c2c(c1O)C(NC(=O)CN1CCN(c3cccc(Cl)c3)CC1)CC2 (stereo not drawn) | 81.9 s | 90.6 s | 144.5% | 224.8%

Row | Structure (SMILES) | SMT (Mus musculus [1]) | RRT (Mus musculus [2]) | SVT (Mus musculus [3]) | SVT (Mus musculus [4])
25 | COc1ccc(N2CCN(CC(=O)NC3c4c(O)c(C)cc(C)c4CC3(C)C)CC2)cc1OC (stereo not drawn) | 81 s | 59.5 s | 85.7% | –
26 | COc1cccc(N2CCN(CC(=O)NC3c4c(c(C)cc(C)c4OC)CC3(C)C)CC2)c1 (stereo not drawn) | 61.8 s | 72.6 s | 93.4% | –
27 | Cc1cc(C)c2c(c1O)C(NCC(=O)N1CCN(c3cccc(Cl)c3)CC1)C(C)(C)C2 (stereo not drawn) | 95.2 s | 116.3 s | – | 146.8%
28 | CCC(C)c1cc(C)c2c(c1O)C(NC(=O)CN1CCN(c3cccc(OC)c3)CC1)CC2 (stereo not drawn) | 103.5 s | 99.1 s | 162.3% | 218.5%
29 | CCC(C)c1cc(C)c2c(c1O)C(NC(=O)CN1CCN(c3cccc(C)c3)CC1)CC2 (stereo not drawn) | 125.1 s | 91.9 s | 110.5% | 172.2%
30 | CCC(C)c1cc(C)c2c(c1O)C(NC(=O)CN1CCN(c3cccc(Cl)c3)CC1)C(C)(C)C2 (stereo not drawn) | 80.3 s | 99.4 s | – | 147.7%
31 | Cc1cc(C)c2c(c1O)C(NC(=O)CN1CCCCC1)C(C)(C)C2 (stereo not drawn) | 84.2 s | 100.7 s | – | 112.7%
32 | Cc1cc(C)c2c(c1O)C(NC(=O)CN1CCN(c3ccc([N+](=O)[O-])cc3)CC1)C(C)(C)C2 (stereo not drawn) | 90.6 s | 99.5 s | 107.9% | –
33 | COc1cccc(N2CCN(CC(=O)NC3c4c(O)c(C)cc(C)c4CC3Cc3ccccc3)CC2)c1 (stereo not drawn) | – | – | 123.1% | –
34 | Cc1cc(C)c2c(c1O)C(NC(=O)CN1CCN(c3cccc(Br)c3)CC1)C(C)(C)C2 (stereo not drawn) | 91 s | 81.8 s | 83.2% | –
35 | Cc1cc(C)c2c(c1O)C(NC(=O)CN1CCN(c3cccc(C(F)(F)F)c3)CC1)C(C)(C)C2 (stereo not drawn) | 83.7 s | 89.5 s | 107.8% | –
36 | COc1cccc(N2CCN(CCNC3c4c(O)c(C)cc(C)c4CC3(C)C)CC2)c1 (stereo not drawn) | 112.1 s | 110 s | – | 120.8%
37 | Cc1cc(C)c2c(c1O)C(NC(=O)CN1CCN(c3cccc(Cl)c3)CC1)C(c1ccc(Cl)cc1)C2 (stereo not drawn) | 99.4 s | 98 s | 81.3% | –
38 | Cc1cc(C)c2c(c1O)C(NC(=O)CN1CCCC1C(=O)O)C(C)(C)C2 (stereo not drawn) | 150.3 s | 103.3 s | 92.3% | –
39 | Cc1ccc(C(=O)NC2CCc3c(C)cc(C)c(O)c32)cc1 (stereo not drawn) | – | – | – | 68.8%
40 | Cc1ccc(Cl)cc1N1CCN(CC(=O)NC2c3c(O)c(C)cc(C)c3CC2(C)C)CC1 (stereo not drawn) | 74 s | 91.7 s | 103.2% | –
41 | Cc1cc(C)c2c(c1O)C(NC(=O)CN1CCN(c3cccc(Cl)c3Cl)CC1)C(C)(C)C2 (stereo not drawn) | 126.6 s | 99.2 s | 94.6% | –
42 | COc1cccc(N2CCN(CC(=O)NC3c4c(O)c(C)cc(C)c4CC3c3ccc(Cl)cc3)CC2)c1 (stereo not drawn) | 94.3 s | 80.1 s | 91.7% | –
43 | COc1ccc(N2CCN(CC(=O)NC3c4c(O)c(C)cc(C)c4CC3(C)C)CC2)cc1 (stereo not drawn) | 63.1 s | 82.3 s | 100.6% | –
44 | Cc1cc(C)c2c(c1O)C(NC(=O)Cn1ccnc1)C(C)(C)C2 (stereo not drawn) | 66.4 s | 76.8 s | 71.8% | –
45 | CCCc1cc(C)c2c(c1O)C(NC(=O)CN1CCN(c3cccc(OC)c3)CC1)C(C)(C)C2 (stereo not drawn) | 107.2 s | 114.6 s | 95% | –
46 | COc1cccc(N2CCN(CCC(=O)NC3c4c(O)c(C)cc(C)c4CC3(C)C)CC2)c1 (stereo not drawn) | 92.4 s | 98 s | 91.8% | –
47 | COc1cccc(N2CCN(CC(=O)NC3c4c(O)ccc(C)c4CC3(C)C)CC2)c1 (stereo not drawn) | 64.7 s | 62.9 s | 97.2% | –
48 | Cc1cc(C)c2c(c1O)C(NC(=O)CN1CCCC1=O)C(C)(C)C2 (stereo not drawn) | 88.8 s | 89.2 s | – | 135.3%
